Test [1] has as its target T1, macrophage isoform of nitric oxide synthetase (Mus musculus, UniProt P29477).
T1 construct: endogenous in cells; host or cells: murine macrophage cell line J774A-1 (from laboratories of the Imperial Cancer Research Fund), induced with LPS and IFN-gamma
The experiment in a line: Screen for Macrophage Nitric Oxide Synthase Inhibition Activity. It is filed as biochemical. As to conditions: lysate of induced murine J774A-1 cells; 1 hour at room temperature; read-out: IC50 in the screen for activity against the macrophage isoform of nitric oxide synthetase. The source says:
The enzyme nitric oxide synthetase has a number of isoforms and compounds of formula I, or a pharmaceutically acceptable salt thereof, may be screened for nitric oxide synthetase inhibition activity by procedures based on those of Bredt and Snyder in Proc. Natl. Acad. Sci. (1990) 87, 682-685 and Forstermann et. al. (1992) Eur. J. Pharm. 225, 161-165. Nitric oxide synthetase converts ^3 H-L-arginine to ^3 H-L-citrulline which can be separated by cation exchange chromatography and quantified by liquid scintillation counting.
(2) Screen for Macrophage Nitric Oxide Synthase Inhibition Activity
Enzyme is prepared, after induction, from the cultured murine macrophage cell line J774A-1 (obtained from laboratories of the Imperial Cancer Research Fund). J774A-1 cells are cultured in Dulbecco's Modified Eagles Medium (DMEM) supplemented with 10% foetal bovine serum, 4 mM L-glutamine and antibiotics (100 units/ml penicillin G, 100 μg/ml streptomycin & 0.25 μg/ml amphotericin B). Cells are routinely grown in […] flasks containing 35 ml medium kept at 37° C. and in a humidified atmosphere containing 5% CO2.
Nitric oxide synthase is produced by cells in response to inferferon-γ(IFNγ) and lipopolysaccharide (LPS). […]
Labelled L-citrulline is separated from labelled L-arginine using Dowex AG-50W. […] After allowing the samples to dry the L-citrulline is quantified by scintillation counting. […]

The target in test [2] is T2, endothelial isoform of nitric oxide synthetase (Homo sapiens, UniProt P29474).
T2 construct: Enzyme may be isolated from human umbilical vein endothelial cells (HUVECs); host or cells: human umbilical vein endothelial cells (HUVECs), CHAPS-solubilised particulate fraction
Briefly: Screen for Endothelial Nitric Oxide Synthase Inhibition Activity. It is filed as biochemical.
Experimental: 3) Screen for Endothelial Nitric Oxide Synthase Inhibition Activity
HUVECs were purchased from Clonetics Corp (San Diego, Calif., USA) and cultured to confluency. Cells can be maintained to passage 35-40 without significant loss of yield of nitric oxide synthase. When cells reach confluency, they are resuspended in Dulbecco's phosphate buffered saline, centrifuged at 800 rpm for 10 mins, the cell pellet homogenised in ice-cold 50 mM Tris-HCl, 1 mM EDTA, 10% glycerol, 1 mM phenylmethylsulphonylfluoride, 2 μM leupeptin at pH 4.2. Following centrifugation at 34,000 rpm for 60 mins, the pellet is solubilised in the homogenisation buffer which also contains 20 mM CHAPS. After a 30 min incubation on ice, the suspension is centrifuged at 34,000 rpm for 30 mins. The resulting supernatant is stored at -80° C. until use. […]
Labelled L-citrulline is separated from labelled L-arginine by chromatography over a Dowex AG-50W-X8 200-400 mesh column. […] The L-citruiline is then quantified by scintillation counting. […]

The target of test [3] is T3, neuronal isoform of nitric oxide synthetase (Rattus norvegicus, UniProt P29476).
T3 construct: Enzyme was isolated from rat hippocampus or cerebellum; from tissue; host or cells: hippocampus or cerebellum of male Sprague-Dawley rat (20,000 g supernatant)
Briefly: biochemical. As to conditions: enzyme from rat hippocampus or cerebellum; 22° C., 10 minutes; read-out: IC50 in the screen for activity against the neuronal isoform of nitric oxide synthetase.
Experimental: 1) Screen for Neuronal Nitric Oxide Synthase Inhibition Activity
Enzyme was isolated from rat hippocampus or cerebellum. The cerebellum or hippocampus of a male Sprague-Dawley rat (250-275g) is removed following CO2 anaesthesia of the animal and decapitation. Cerebellar or hippocampal supernatant is prepared by homogenisation in 50 mM Tris-HCl with 1 mM EDTA buffer (pH 7.2 at 25° C.) and centifugation for 15 minutes at 20,000 g. Residual L-arginine is removed from the supernatant by chromatography through Dowex AG-50W-X8 sodium form and hydrogen form columns successively, and further centrifugation at 1000 g for 30 seconds.
For the assay, 25 μl of the final supernatant is added to each of 12 test tubes containing 25 μl L-arginine solution (of concentration 18 μM ^1 H-L-arginine, 96 nM ^3 H-L-arginine) and either 25 μl of an assay buffer (50 mM HEPES, 1 mM EDTA, 1.5 mM CaCl2, pH 7.4) or 25 μl of test compound in the buffer at 22° C. […]
Labelled L-citrulline is separated from labelled L-arginine by chromatography over a Dowex AG-50W-X8 200-400 mesh column. […] The L-citrulline is then quantified by scintillation counting. […]

Counter-ions that a name gives are not always drawn. Where only a bound is given, the exact number is not on record here.

T2 sequence (P29474 2-1203): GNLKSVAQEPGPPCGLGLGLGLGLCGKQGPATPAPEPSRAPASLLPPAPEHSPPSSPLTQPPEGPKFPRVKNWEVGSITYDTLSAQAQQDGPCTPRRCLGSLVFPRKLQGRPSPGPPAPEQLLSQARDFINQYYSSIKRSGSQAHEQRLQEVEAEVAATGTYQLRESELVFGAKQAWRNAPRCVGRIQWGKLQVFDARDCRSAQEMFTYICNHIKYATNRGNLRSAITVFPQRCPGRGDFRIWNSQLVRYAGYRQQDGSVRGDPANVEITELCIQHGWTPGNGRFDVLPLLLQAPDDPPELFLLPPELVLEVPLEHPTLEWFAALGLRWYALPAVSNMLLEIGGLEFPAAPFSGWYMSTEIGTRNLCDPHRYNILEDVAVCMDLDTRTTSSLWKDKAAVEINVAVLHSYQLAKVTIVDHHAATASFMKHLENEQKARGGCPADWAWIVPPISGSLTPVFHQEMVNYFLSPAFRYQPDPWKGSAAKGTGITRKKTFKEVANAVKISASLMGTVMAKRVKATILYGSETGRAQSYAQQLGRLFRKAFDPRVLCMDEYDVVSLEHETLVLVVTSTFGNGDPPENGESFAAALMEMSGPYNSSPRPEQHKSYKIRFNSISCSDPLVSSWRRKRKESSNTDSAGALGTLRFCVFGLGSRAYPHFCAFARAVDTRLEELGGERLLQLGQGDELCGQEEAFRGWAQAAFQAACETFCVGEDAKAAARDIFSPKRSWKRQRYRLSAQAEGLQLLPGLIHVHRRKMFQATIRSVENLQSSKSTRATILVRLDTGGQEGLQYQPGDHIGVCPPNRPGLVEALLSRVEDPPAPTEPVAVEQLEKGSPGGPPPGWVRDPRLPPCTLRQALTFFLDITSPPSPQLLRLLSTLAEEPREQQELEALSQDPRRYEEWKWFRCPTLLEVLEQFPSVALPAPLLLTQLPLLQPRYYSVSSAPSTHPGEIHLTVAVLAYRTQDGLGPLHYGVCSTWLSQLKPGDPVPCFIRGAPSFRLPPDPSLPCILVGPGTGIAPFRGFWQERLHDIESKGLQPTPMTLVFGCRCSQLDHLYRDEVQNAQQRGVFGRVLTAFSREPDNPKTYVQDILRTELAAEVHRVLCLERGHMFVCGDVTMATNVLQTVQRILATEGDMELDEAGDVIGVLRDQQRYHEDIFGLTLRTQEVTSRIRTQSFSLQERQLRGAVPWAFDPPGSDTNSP
T3 sequence (P29476 whole entry, canonical isoform): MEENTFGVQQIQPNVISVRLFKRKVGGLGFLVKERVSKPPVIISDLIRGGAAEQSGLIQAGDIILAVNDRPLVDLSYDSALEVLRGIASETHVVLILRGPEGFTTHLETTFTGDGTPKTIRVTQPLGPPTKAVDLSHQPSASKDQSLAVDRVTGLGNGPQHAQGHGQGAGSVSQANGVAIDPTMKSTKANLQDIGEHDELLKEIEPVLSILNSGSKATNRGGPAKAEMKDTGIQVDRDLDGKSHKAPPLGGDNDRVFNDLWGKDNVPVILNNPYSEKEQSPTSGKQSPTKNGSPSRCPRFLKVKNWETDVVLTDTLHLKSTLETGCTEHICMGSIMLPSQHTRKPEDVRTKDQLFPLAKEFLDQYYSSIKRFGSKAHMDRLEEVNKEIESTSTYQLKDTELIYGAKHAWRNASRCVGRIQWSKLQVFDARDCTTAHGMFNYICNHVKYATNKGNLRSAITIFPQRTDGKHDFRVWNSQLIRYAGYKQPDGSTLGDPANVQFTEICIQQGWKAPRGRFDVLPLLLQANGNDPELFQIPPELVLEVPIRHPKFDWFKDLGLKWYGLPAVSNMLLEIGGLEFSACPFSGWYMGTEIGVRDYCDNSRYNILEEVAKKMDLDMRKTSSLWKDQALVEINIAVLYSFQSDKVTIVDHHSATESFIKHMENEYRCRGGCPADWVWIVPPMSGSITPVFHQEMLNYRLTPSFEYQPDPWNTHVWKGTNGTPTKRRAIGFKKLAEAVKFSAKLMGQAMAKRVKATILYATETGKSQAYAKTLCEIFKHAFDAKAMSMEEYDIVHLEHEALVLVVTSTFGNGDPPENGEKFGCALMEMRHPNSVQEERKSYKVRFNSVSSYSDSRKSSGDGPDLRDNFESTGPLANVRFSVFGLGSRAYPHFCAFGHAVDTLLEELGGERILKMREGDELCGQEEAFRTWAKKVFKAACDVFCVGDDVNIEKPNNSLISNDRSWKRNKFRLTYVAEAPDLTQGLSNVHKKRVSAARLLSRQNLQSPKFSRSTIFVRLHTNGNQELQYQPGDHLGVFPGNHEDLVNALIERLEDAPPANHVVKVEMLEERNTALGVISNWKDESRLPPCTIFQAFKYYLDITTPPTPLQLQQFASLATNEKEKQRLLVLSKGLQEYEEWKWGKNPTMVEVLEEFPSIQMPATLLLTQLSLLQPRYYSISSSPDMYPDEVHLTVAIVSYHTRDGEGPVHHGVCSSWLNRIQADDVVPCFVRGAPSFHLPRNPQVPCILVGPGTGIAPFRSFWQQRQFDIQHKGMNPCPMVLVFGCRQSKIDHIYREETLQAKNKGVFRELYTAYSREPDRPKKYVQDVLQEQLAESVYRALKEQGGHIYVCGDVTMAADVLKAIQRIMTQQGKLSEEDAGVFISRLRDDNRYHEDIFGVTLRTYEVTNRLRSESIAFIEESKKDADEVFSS

The IC50 is the concentration needed to halve the response being measured. Consider `CC(=O)Nc1cccc(NC(=N)N2CCCC2)c1` [Example 1, N-(3-((methylcarbonyl)amino)phenyl)-1-pyrrolidinecarboximidamide monohydrochloride], for which the IC50 in test [1] was greater than 100 µM; in test [2] (enzyme from HUVECs, 22° C., 10 minutes, read-out: IC50 in the screen for activity against the endothelial isoform of nitric oxide synthetase), greater than 100 µM; in test [3] it was less than 10 µM.

One may read the inhibition as the drop in the measured response relative to a control, in per cent. As for `N=C(NCCC[C@H](N)C(=O)O)N[N+](=O)[O-]` [N-nitro-L-arginine, reference compound], in test [2] (at a concentration of 1 μM, reference standard), the inhibition at 1 µM was in the range of 70 to 90%.

(Values after patent US5885985A, “Guanidine derivatives useful in therapy” (priority 1993, dated 1999).)
